Source: US20250304533A1, “THERAPEUTIC ALKALOID COMPOUNDS” (Sensorium Therapeutics, Inc., priority 2022, published 2025)
Read-outs that look alike come from different tables or passages of the source.

Columns and labels:
[1] = cited from earlier work
SERT = target: T1, SERT (Homo sapiens, UniProt P31645); assay: SERT Inhibition Assay of Example A1 (Neurotransmitter Transporter fluorescence uptake, stable 5HTT cells); format: cell-based
T1 construct: expressed in transfected cells
Description: SERT inhibition was measured using a Neruotransmitter Transportation Fluorescence assay. Briefly, stable 5HTT cells were prepared in a 384 microwell plate. Compounds were prepared by in assay buffer (20 mM HEPES, 0.1% BSA). The compounds were added to the plated cells and incubated for 30 minutes at 37° C. 25 μL of dye solution (Molecular Devices Neurotransmitter Transporter Uptake Assay Kit) is added per well and incubated for 30 minutes at 37° C. The plates are then read on a plate reader.

PDE4B2 = target: T2, PDE4B2 (Homo sapiens, UniProt Q07343); assay: Recombinant PDE4 Inhibition Assay of Example A2; format: biochemical; conditions: recombinant enzyme
T2 construct: purchased BPSBioscience
T2 sequence (Q07343 1-564 isoform Q07343-2): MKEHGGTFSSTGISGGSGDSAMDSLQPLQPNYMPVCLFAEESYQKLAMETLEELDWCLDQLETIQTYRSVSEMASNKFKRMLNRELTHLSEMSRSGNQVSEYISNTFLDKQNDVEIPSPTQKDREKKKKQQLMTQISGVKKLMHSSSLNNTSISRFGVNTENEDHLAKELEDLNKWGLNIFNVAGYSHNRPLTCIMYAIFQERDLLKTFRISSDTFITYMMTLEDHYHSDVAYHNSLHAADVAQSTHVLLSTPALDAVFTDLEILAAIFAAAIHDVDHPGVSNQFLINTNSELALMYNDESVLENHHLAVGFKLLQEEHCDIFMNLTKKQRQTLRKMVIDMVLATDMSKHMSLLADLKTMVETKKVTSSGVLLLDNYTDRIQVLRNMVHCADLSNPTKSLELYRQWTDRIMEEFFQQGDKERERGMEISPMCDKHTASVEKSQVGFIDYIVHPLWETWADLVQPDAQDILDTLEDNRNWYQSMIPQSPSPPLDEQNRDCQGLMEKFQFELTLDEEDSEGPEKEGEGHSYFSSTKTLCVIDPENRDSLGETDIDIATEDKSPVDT
Description: (§1) Recombinant PDE assay inhibition can be measured according to the BPSBioscience PDE4 assay kit, as described below.
(§2) 1) Dilute 20 µM FAM-Cyclic-3′,5′-AMP stock 100-fold with PDE buffer to make a 200 nM solution. Make only sufficient quantity needed for the assay; store remaining […] stock solution in aliquots at −20° C. 2) Add 25 μl of FAM-Cyclic-3′,5′-AMP (200 nM) to each well designated “Positive Control”, “Test Inhibitor”, and “Substrate Control”. 3) Add 20 μl of PDE assay buffer to each well designated “Substrate Control” and 45 μl of PDE assay buffer to each well designated “Blank”. 4) Add 5 μl of inhibitor solution to each well designated “Test Inhibitor”. For the wells labeled “Positive Control”, “Substrate Control” and “Blank”, add 5 μl of the same solution without inhibitor (inhibitor buffer). 5) Thaw PDE on ice. Upon first thaw, briefly spin tube containing enzyme to recover the full contents of the tube. 6) Dilute PDE4 in PDE buffer to 7.5 pg/μl (0.15 ng/reaction)*. Initiate reaction by adding 20 μl of PDE4 (7.5 pg/μl) to the wells designated “Positive Control” and “Test Inhibitor.” 7) Incubate at room temperature for 1 hour.
(§3) 1) Mix binding agent thoroughly and dilute binding agent 1:100 with binding agent diluent. 2) Add 100 μl diluted binding agent to each microwell. Incubate at room temperature for 1 hour with slow shaking. 3) Read the fluorescent polarization of the sample in a microtiter-plate reader equipped for the measurement of fluorescence polarization, capable of excitation at wavelengths ranging from 485±5 nm and detection of emitted light ranging from 528±10 nm. Blank value is subtracted from all other values.

PDE4A1A = target: T3, PDE4A1A (Homo sapiens, UniProt P27815); assay: Recombinant PDE4 Inhibition Assay of Example A2; format: biochemical; conditions: recombinant enzyme
T3 construct: purchased BPSBioscience
T3 sequence (P27815 1-647 isoform P27815-4): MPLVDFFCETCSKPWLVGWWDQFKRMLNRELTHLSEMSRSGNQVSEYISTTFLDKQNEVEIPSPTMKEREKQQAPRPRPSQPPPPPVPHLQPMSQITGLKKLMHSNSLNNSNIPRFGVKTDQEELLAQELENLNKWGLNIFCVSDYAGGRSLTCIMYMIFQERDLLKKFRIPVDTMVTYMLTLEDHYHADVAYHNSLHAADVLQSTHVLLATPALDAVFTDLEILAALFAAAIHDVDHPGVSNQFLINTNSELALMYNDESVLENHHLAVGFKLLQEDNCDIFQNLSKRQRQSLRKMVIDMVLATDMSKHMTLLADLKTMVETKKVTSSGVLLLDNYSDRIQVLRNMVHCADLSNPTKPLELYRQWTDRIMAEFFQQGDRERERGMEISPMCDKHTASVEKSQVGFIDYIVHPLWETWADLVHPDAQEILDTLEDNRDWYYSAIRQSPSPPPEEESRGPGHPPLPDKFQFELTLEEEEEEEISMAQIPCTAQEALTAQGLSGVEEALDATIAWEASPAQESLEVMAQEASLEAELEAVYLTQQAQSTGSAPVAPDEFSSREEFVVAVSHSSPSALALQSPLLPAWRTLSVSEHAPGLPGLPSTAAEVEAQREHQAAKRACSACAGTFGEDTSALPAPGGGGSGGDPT
Description: as §1, §2, §3

PDE4D2 = target: T4, PDE4D2 (Homo sapiens, UniProt Q08499); assay: Recombinant PDE4 Inhibition Assay of Example A2; format: biochemical; conditions: recombinant enzyme
T4 construct: purchased BPSBioscience
T4 sequence (Q08499 303-809): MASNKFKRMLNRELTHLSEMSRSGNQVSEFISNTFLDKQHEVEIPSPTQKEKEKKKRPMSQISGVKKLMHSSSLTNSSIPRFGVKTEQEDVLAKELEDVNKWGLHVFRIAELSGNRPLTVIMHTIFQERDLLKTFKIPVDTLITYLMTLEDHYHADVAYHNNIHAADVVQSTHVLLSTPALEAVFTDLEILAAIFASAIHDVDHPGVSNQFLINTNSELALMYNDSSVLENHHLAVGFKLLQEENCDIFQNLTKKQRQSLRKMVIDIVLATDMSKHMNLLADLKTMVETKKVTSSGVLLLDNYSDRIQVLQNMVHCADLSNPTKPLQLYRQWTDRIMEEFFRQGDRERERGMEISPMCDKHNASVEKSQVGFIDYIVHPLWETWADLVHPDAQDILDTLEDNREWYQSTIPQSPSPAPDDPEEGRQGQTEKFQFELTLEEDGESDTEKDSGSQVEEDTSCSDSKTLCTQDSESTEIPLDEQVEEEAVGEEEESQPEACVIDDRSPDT
Description: as §1, §2, §3

PDE4C1 = target: T5, PDE4C1 (Homo sapiens, UniProt Q08493); assay: Recombinant PDE4 Inhibition Assay of Example A2; format: biochemical; conditions: recombinant enzyme
T5 construct: purchased BPSBioscience
T5 sequence (Q08493 whole entry): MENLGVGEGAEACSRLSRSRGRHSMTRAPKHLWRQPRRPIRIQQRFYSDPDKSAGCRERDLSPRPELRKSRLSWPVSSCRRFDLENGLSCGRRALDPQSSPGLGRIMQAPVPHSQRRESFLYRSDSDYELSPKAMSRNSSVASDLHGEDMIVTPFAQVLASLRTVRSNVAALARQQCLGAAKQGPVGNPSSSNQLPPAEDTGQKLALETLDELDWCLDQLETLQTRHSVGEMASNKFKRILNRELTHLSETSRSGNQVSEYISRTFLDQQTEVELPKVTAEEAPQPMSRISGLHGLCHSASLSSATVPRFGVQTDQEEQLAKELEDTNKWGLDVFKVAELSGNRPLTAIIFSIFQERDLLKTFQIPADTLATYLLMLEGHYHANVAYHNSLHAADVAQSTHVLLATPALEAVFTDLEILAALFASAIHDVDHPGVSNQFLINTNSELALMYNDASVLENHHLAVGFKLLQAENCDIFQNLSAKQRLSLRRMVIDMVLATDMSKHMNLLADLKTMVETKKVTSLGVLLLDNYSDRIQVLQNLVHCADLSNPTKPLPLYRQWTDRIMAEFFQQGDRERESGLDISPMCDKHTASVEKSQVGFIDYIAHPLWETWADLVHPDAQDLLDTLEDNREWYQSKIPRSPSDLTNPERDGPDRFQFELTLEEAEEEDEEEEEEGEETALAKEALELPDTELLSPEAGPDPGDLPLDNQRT
Description: as §1, §2, §3

[2] = target: 5-HT transporter (“SERT”) (Homo sapiens, UniProt P31645); conditions: Hill coefficient of binding curve, Harvey et al., 2011; cited from earlier work
5-HT transporter (“SERT”), sequence (P31645 whole entry, species assumed): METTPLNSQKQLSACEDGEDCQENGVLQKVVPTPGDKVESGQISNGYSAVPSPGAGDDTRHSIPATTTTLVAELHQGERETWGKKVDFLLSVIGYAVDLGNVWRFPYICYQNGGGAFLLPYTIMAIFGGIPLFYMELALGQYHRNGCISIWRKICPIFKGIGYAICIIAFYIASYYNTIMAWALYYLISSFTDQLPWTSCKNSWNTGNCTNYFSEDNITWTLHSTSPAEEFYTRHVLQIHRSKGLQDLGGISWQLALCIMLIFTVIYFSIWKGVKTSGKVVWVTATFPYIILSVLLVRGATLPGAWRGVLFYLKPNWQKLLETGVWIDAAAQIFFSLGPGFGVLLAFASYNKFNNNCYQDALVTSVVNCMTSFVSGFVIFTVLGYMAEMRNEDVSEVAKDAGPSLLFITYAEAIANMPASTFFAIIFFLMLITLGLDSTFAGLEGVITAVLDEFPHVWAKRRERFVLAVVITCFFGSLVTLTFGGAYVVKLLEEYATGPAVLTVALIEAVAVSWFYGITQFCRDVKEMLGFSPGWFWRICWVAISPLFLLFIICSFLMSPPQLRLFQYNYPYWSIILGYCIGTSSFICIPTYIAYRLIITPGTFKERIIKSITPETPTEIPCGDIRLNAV

[3] = class symbols, read-out: SERT IC50

T1 sequence (P31645 whole entry, species assumed): as above

| SMILES | half-life in plasma [1] | IC50 (SERT; [3]) [µM] | IC50 (SERT; read-out: SERT inhibition IC50) [µM] | IC50 (PDE4B2) [µM] | IC50 (PDE4A1A) [µM] | IC50 (PDE4D2) [µM] | IC50 (PDE4C1) [µM] | 5-HT transporter (“SERT”) nH [2] |
| --- | --- | --- | --- | --- | --- | --- | --- | --- |
| COc1ccc([C@@]23CCC(=O)C[C@@H]2N(C)CC3)cc1OC [(−) mesembrine] | less than 2 hours |  |  |  |  |  |  |  |
| COc1cc([C@@]23C=CC(=O)CC2N(C)CC3)cc(Br)c1OC (stereo partly drawn) [Compound 130, (3aR)-3a-(3-bromo-4,5-dimethoxy-phenyl)-1-methyl-2,3,7,7a-tetrahydroindol-6-one] |  | 0.5 to 1 | < 1 | > 10 | > 10 | > 10 | > 10 |  |
| COc1cc([C@@]23C=CC(=O)C[C@@H]2N(C)CC3)cc(I)c1OC [Compound 132, (3aR,7aS)-3a-(3-iodo-4,5-dimethoxy-phenyl)-1-methyl-2,3,7,7a-tetrahydroindol-6-one] |  | 0.1 to 0.5 | < 1 | > 10 | > 10 | > 10 | > 10 |  |
| COc1cc([C@@]23C=CC(=O)C[C@@H]2N(C)CC3)cc(F)c1OC [Compound 133, (3aR,7aS)-3a-(3-fluoro-4,5-dimethoxy-phenyl)-1-methyl-2,3,7,7a-tetrahydroindol-6-one] |  | 0.1 to 0.5 | < 1 | 1 to 10 | 1 to 10 | > 10 | > 10 |  |
| COc1cc(C23C=CC(=O)CC2N(C)CC3)cc(OC)c1OC (centres unmarked) [Compound 144, 1-methyl-3a-(3,4,5-trimethoxyphenyl)-2,3,7,7a-tetrahydroindol-6-one] |  | > 1 | > 1 | > 10 | > 10 | > 10 | > 10 |  |
| COc1ccc([C@@]23C=CC(=O)C[C@@H]2N(C)CC3)cc1OC [Mesembrenone] |  |  |  |  |  |  |  | 1.0 |
